Measurements from publication PMC12261321, “Inhibitors of the Bacterioferritin Ferredoxin Complex Dysregulate Iron Homeostasis and Kill and Biofilm-Embedded Cells” (ACS Infectious Diseases, 2025).
Entries after “also recorded” stand apart in the source; their conditions may differ.

Key:
Assay type in all cases: cell-based
A. baumannii 5075 [1] = assay: Compound intracellular accumulation in A. baumannii 5075; conditions: cells treated with 30 µM compound
Method: Determination of Compound Intracellular Accumulation. These experiments were carri ed out as reported previously,16 with modifications. Starter cultures o f P. aeruginosa PAO1 or A. baumannii 5075 were centrifuged for 10 min at 3148 x g and 4 °C, resuspended in 5 mL of fresh LB, diluted to OD 600 = 0.03 in fresh LB media (250 mL), and then cultured at 35 °C and 220 rpm for 4 h. Th e resultant cul ture was diluted to OD600 = 0.4 in 250 mL LB and centrifuged at 4 °C and 3470 x g for 10 min. The cell pellet was resuspended in 20 mL of PBS and transfer red to a 50 mL conical tube, where it was centrifuged at 4 °C and 3148 x g for 20 min. The cell pellet was resuspended in 15 mL of PBS supplemented with 0.05% (w/v) HPMC and the suspension was divided equally into two new conical tubes. One of th e tubes was treated with 150 µL of DMSO (control), while the second tube was treated with 150 µL of compound in DMSO solution to produce a compound final concentration of 30 µM or 15 µM. The resultant mixtures were incubated at 37 °C and 220 rpm for 15 min, placed on ice for 1 min, and then centrifuged at 3148 x g rpm and 4 °C for 10 min. The cell pellet was resuspended in 7.5 mL of ice -cold PBS and vortexed (10 s, five t imes). 200 µL of the cell suspension was used to plate and enumerate viable cells, and 800 µL of the suspension was lay ered onto 700 µL of chilled silicon oil contained in 1.5 mL Eppendo rf tubes and then centrifuged at 4 °C ( 900 x g) for 10 min, then again at 16,200 x g for 5 min to allow pass ag e of the cell suspension through the silicon oil layer. The aqueous and oil layers were removed, and the cell pellet was washed twice in PBS (800 μ L), each time transferring the cell suspension to a new Eppendorf tube and then centrifuging at 16,200 x g. The cell pellet was lysed in 800 µL methanol by vortexing followed by 10 min incubationat room temperatur e. The lysate suspension was pelleted, the supernatant was transferred to a new Eppendorf tube and then placed into a vacuum concentrator (Eppendorf 5301 Vacufuge) to evaporate the methanol (4 h). The dried […]
cell lysate was resuspend ed in 600 µL of DMSO and centrifuged at 16,200 x g rpm for 5 min at room temperature.
The clarified supernatant was titrated with small volumes of 250 µM compound stock, measuring the fluorescen ce after the addition of each aliquot with the aid of a Cary Eclipse Fluorescence Spectrometer (Agilent). The compound concentration was determined utilizing the standard addition method,17 and compound accumulation is reported as nmol compound/1012 CFU/mL. […]
Eclipse) fluorescen ce sp ectrophotometer. The flu orescen ce intensity of th e treated sample (FI)Tr and that of the untreated control (FI)Un was normalized to the corresponding OD600 and the ratio (FI/OD600)Tr / (F I/ OD600)Un is […]
The determination for each of the compounds was carri ed out in 5 biological replicates.
Determination of Siderophores Secreted by A. baumannii . The chromo azurol S (CAS) solution was prepared as previously reported18 with some modifications. The blue dye solution (0.6 g/L CAS ( ACROS Organics), 100 μM FeCl3·6H2O, and 0.73 g/L hexadecyltrimethylammonium bromide (HDTMA, ACROS Organics) was autoclaved and stored in the dark. The MM9-PIPES buffer solution (3 g/L KH2PO4, 5 g/L NaCl, 10 g/L NH4C l, 32.24 g/L piperazine -1,4-bis-2- ethanesulfonic acid (PIPES , Sigma Aldrich), pH 6.75) was sterilized using a 0.22 µm syringe filter (VWR). Prior to every experimen t, blue dye solution (0.5 mL) was mixed with 4.5 mL of MM9-PIPES solution. An overnight culture of A. baumannii 5075 was diluted to OD600 = 0.0001 with modified M63 media (no citric acid) supplemented with 4 μ M Fe and transferred to a 96-well plate, wh ere it was cul tured for 20

P. aeruginosa PAO1 [2] = assay: Pyoverdin secreted by P. aeruginosa PAO1 (fluorescence); conditions: planktonic cells, 24 h; KM-5–25 80 μM, KM-5–35 60 μM, EB-5–73 40 μM, SB-17–140 80 μM
Method: Dete rmination of pyoverdin secreted by P. aeruginosa PA O 1 . These experiments were conducted as previously reported13 with some modifications. Cells were cultured in modified M63 media (2 g / L ( N H 4)2SO4, 13.6 g/L KH2PO4 (Sigma Aldrich), 2 g/L glucose, 4 g/L cit ric acid, 5 g/ L technical grade casamino acids (B D scientific), 0.24 g/L MgSO4 (Alfa A esar), and 0.025% (w/v) HPMC, pH 7.0 adjusted with KOH) . Starter cultures in LB were diluted to OD600 = 0.0001 and cultured in a sh aker i ncubator (35 °C and 205 rpm) for 24 h, in the absen ce ( control) and in the presence of KM -5- 25 (80 μM), KM-5- 35 (60 μM), EB- 5- 73 (40 μM), and SB-17- 140 (80 μM); al l cell suspensions have 1.5% DMSO. 700 μ L of the culture wer e clarified by centrifugation (16,200 x g, 10 min, 4 °C), diluted 10-fold in PBS and then analyzed by acquiring fluorescence emission spectra (410- 600 nm) with excitation at 400 nm (10 nm slit width) and emission at λ max= 430 nm (10 nm slit width) using an Ag ilent (Cary Eclipse) fluorescen ce sp ectrophotometer. The flu orescen ce intensity of th e treated sample (FI)Tr and that of the untreated control (FI)Un was normalized to the corresponding OD600 and the ratio (FI/OD600)Tr / (F I/ OD600)Un is […]
The determination for each of the compounds was carri ed out in 5 biological replicates. […]

A. baumannii 5075 [3] = assay: Compound intracellular accumulation in A. baumannii 5075; conditions: ‡ treatment with 15 µM compound
P. aeruginosa PAO1 [4] = assay: Compound intracellular accumulation in P. aeruginosa PAO1; conditions: ‡ treatment with 15 µM compound

Row | Structure (SMILES) | Intracell. Accum, A. baumannii 5075 (A. baumannii 5075 [1]) | Intracell. Accum, P. aeruginosa PAO1 (P. aeruginosa PAO1 [4]) | also measured
1 | O=C1NC(=O)c2c(NCc3ccccc3O)cccc21 [Analog 11, 4-((2-Hydroxybenzyl)amino)isoindoline-1,3-dione] | 55 ± 15 nmol/1012 CFU |  | 
2 | Cc1ccc(CNc2cccc3c2C(=O)NC3=O)c(O)c1 [EB-5-69] | 193 ± 33 nmol/1012 CFU |  | 
3 | Cc1cccc(CNc2cccc3c2C(=O)NC3=O)c1O [EB-5-70] | 99 ± 15 nmol/1012 CFU |  | 
4 | O=C1NC(=O)c2c(NCc3c(O)cccc3F)cccc21 [EB-5-71] | 495 ± 35 nmol/1012 CFU |  | 
5 | O=C1NC(=O)c2c(NCc3cccc(Br)c3O)cccc21 [EB-5-73] | 201 ± 30 nmol/1012 CFU |  | pyoverdine secretion, (FI/OD600)Tr/(FI/OD600)Un (P. aeruginosa PAO1 [2]): did not secrete more pyoverdine than the untreated control cultures; also recorded: secrete the same amount of pyoverdine as the untreated control
6 | O=C1NC(=O)c2c(NCc3cccc(F)c3O)cccc21 [EB-5-80] | 44 ± 6 nmol/1012 CFU |  | 
7 | O=C1NC(=O)c2c(NCc3cc(F)ccc3O)cccc21 [JAG-5-7] | 157 ± 54 nmol/1012 CFU |  | 
8 | O=C1NC(=O)c2c(NCc3cc(Cl)ccc3O)cccc21 [KM-5-25, 4-((5-Chloro-2-hydroxybenzyl)amino)isoindoline-1,3-dione] |  |  | pyoverdine secretion, (FI/OD600)Tr/(FI/OD600)Un (P. aeruginosa PAO1 [2]): overproduction of pyoverdine; also recorded: pyoverdine overproduction phenotype
9 | O=C1NC(=O)c2c(NCc3c(O)cccc3Cl)cccc21 [KM-5-29] | 2614 ±134 nmol/1012 CFU |  | 
10 | O=C1NC(=O)c2c(NCc3cccc(Cl)c3O)cccc21 [KM-5-30] | 169 ± 62 nmol/1012 CFU |  | 
11 | O=C1NC(=O)c2c(NCc3cc(Br)ccc3O)cccc21 [KM-5-35, 4-((5-Bromo-2-hydroxybenzyl)amino)isoindoline-1,3-dione] |  |  | pyoverdine secretion, (FI/OD600)Tr/(FI/OD600)Un (P. aeruginosa PAO1 [2]): overproduction of pyoverdine; also recorded: pyoverdine overproduction phenotype
12 | O=C1NC(=O)c2c(NCc3cc(Cl)ccc3O)ccc(Br)c21 [SB-16-51] |  | 425 ± 79 nmol/1012 CFU | Intracell. Accum, A. baumannii 5075 (A. baumannii 5075 [3]): 2137 ± 311 nmol/1012 CFU
13 | CC(C)(C)c1ccc(O)c(CNc2cccc3c2C(=O)NC3=O)c1 [SB-16-53] |  | 263 ± 40 nmol/1012 CFU | Intracell. Accum, A. baumannii 5075 (A. baumannii 5075 [3]): 327 ± 17 nmol/1012 CFU
14 | O=C1NC(=O)c2c(NCc3cc(F)ccc3O)ccc(Br)c21 [SB-16-67] | 1173 ± 53 nmol/1012 CFU |  | 
15 | Cc1cc(Br)cc(CNc2cccc3c2C(=O)NC3=O)c1O [SB-16-106] |  | 415 ± 141 nmol/1012 CFU | Intracell. Accum, A. baumannii 5075 (A. baumannii 5075 [3]): 782 ± 11 nmol/1012 CFU
16 | O=C1NC(=O)c2c(NCc3cc(Br)c(F)cc3O)cccc21 [SB-16-112] |  | 457 ± 22 nmol/1012 CFU | 
17 | O=C1NC(=O)c2c(NCc3cc(Br)ccc3O)ccc(Cl)c21 [SB-16-124] |  | 558 ± 154 nmol/1012 CFU | Intracell. Accum, A. baumannii 5075 (A. baumannii 5075 [3]): 2626 ± 389 nmol/1012 CFU
18 | O=C1NC(=O)c2c(NCc3cc(Br)c(O)cc3O)cccc21 [SB-16-137] | 86 ± 23 nmol/1012 CFU |  | 
19 | Cc1cc(Cl)cc(CNc2cccc3c2C(=O)NC3=O)c1O [SB-16-156] |  | 165 ± 18 nmol/1012 CFU | Intracell. Accum, A. baumannii 5075 (A. baumannii 5075 [3]): 671 ± 89 nmol/1012 CFU
20 | Cc1cc(CNc2cccc3c2C(=O)NC3=O)c(O)cc1Br [SB-16-183] |  | 379 ± 48 nmol/1012 CFU | 
21 | O=C1NC(=O)c2c(NCc3cccc4c3CCN4)cccc21 [SB-17-140] |  |  | pyoverdine secretion, (FI/OD600)Tr/(FI/OD600)Un (P. aeruginosa PAO1 [2]): did not secrete more pyoverdine than the untreated control cultures; also recorded: secrete the same amount of pyoverdine as the untreated control
